From patent publication EP0908457B1, “3-(1,2-benzisothiazol- and isoxazol-5-Y1)-2,4(1H,3H)-pyrimidinedione or thione and 3-(1,2-benzisothiazol- and isoxazol-5-y1)-4(3H)-pyrimidinone or thione herbicidal agents” (BASF AKTIENGESELLSCHAFT, priority 1997, dated 1999)

What was measured:
[1] = system: Echinochloa oryzoides (Ard.) Fritsch.; assay: Preemergence weed control under flooded paddy conditions, ECHORC (Watergrass (Calif.)); format: in vivo; conditions: flooded paddy; also: meaning of each grade not given here
[2] = system: Monochoria vaginalis, Presl.; assay: Preemergence weed control under flooded paddy conditions, MOOVA (Monochoria); format: in vivo; conditions: flooded paddy; also: meaning of each grade not given here
[3] = system: Cyperus serotinus, Rottb.; assay: Preemergence weed control under flooded paddy conditions, CYPSE (Flatsedge); format: in vivo; also: meaning of each grade not given here
[4] = system: Oryza sativa, (L.) Tebonnet; assay: Rice tolerance to post-transplant applications under flooded paddy conditions (Example 187), ORYSAT (Rice, Tebonnet); conditions: for herbicidal effect rating, ORYSAT (rice tolerance): rated three to four weeks after treatment; for herbicidal effect rating ORYSAT: rated 3-4 weeks after treatment; as to herbicidal effect rating ORYSAT: meaning of each grade not given here
[5] = system: Sagittaria pygmaea, L.; assay: Preemergence weed control under flooded paddy conditions, SAGPY (Arrowhead (Pygmaea)); format: in vivo; conditions: flooded paddy; also: meaning of each grade not given here
[6] = system: Cyperus iria; assay: Preemergence weed control under flooded paddy conditions, CYPIR (Rice Flatsedge); format: in vivo; conditions: flooded paddy; also: meaning of each grade not given here
[7] = 0.0313 kg/ha, preemergence weeds, rated three to four weeks after treatment
[8] = 0.0625 kg/ha, preemergence weeds, rated three to four weeks after treatment
[9] = 0.1250 kg/ha, preemergence weeds, rated three to four weeks after treatment
[10] = 0.2500 kg/ha, preemergence weeds, rated three to four weeks after treatment
[11] = Rate 0.0320 kg/ha, preemergence, rated 3-4 weeks after treatment
[12] = Rate 0.0620 kg/ha, preemergence, rated 3-4 weeks after treatment
[13] = Rate 0.1250 kg/ha, preemergence, rated 3-4 weeks after treatment
[14] = Rate 0.2500 kg/ha, preemergence, rated 3-4 weeks after treatment
[15] = Rate 0.5000 kg/ha, preemergence, rated 3-4 weeks after treatment

SMILES: CCOCCOCc1nsc2ccc(-n3c(=O)cc(C(F)(F)F)n(C)c3=O)cc12 [Example 200, 3-{3-[(2-Ethoxyethoxy)methyl]-1,2-benzisothiazol-5-yl}-1-methyl-6-(trifluoromethyl)-2,4(1H,3H)-pyrimidinedione]
- herbicidal effect rating, ECHORC [1, 7]: 0.0
- herbicidal effect rating, ECHORC [1, 8]: 2.0
- herbicidal effect rating, ECHORC [1, 9]: 6.0
- herbicidal effect rating, ECHORC [1, 10]: 9.0
- herbicidal effect rating, MOOVA [2, 7]: 9.0
- herbicidal effect rating, MOOVA [2, 8]: 9.0
- herbicidal effect rating, MOOVA [2, 9]: 9.0
- herbicidal effect rating, MOOVA [2, 10]: 9.0
- herbicidal effect rating, CYPSE [3, 7]: 0.0
- herbicidal effect rating, CYPSE [3, 8]: 0.0
- herbicidal effect rating, CYPSE [3, 9]: 2.0
- herbicidal effect rating, CYPSE [3, 10]: 7.0
- herbicidal effect rating, ORYSAT (rice tolerance) ([4]; 0.0313 kg/ha): 7.0
- herbicidal effect rating, ORYSAT (rice tolerance) ([4]; 0.0625 kg/ha): 7.0
- herbicidal effect rating, ORYSAT (rice tolerance) ([4]; 0.1250 kg/ha): 9.0
- herbicidal effect rating, ORYSAT (rice tolerance) ([4]; 0.2500 kg/ha): 9.0
- herbicidal effect rating, SAGPY [5, 7]: 0.0
- herbicidal effect rating, SAGPY [5, 8]: 0.0
- herbicidal effect rating, SAGPY [5, 9]: 0.0
- herbicidal effect rating, SAGPY [5, 10]: 4.0
- herbicidal effect rating, CYPIR [6, 7]: 4.0
- herbicidal effect rating, CYPIR [6, 8]: 6.0
- herbicidal effect rating, CYPIR [6, 9]: 7.0
- herbicidal effect rating, CYPIR [6, 10]: 8.0

SMILES: Cc1ccc(OC(C)(C)C(=O)OC(C)C)c(-c2nsc3ccc(-n4c(=O)cc(C(F)(F)F)n(C)c4=O)cc23)c1 [Example 547, Propionic acid, 2-{{2-{5-[3,6-dihydro-3-methyl-2,6-dioxo-4-(trifluoromethyl)-1(2H)-pyrimidinyl]-1,2-benzisothiazol-3-yl}-p-tolyl}oxy}-2-methyl-, isopropyl ester]
- herbicidal effect rating, ECHORC [1, 11]: 5.4
- herbicidal effect rating, ECHORC [1, 12]: 5.4
- herbicidal effect rating, ECHORC [1, 13]: 5.6
- herbicidal effect rating, ECHORC [1, 14]: 9.0
- herbicidal effect rating, ECHORC [1, 15]: 9.0
- herbicidal effect rating, MOOVA [2, 11]: 9.0
- herbicidal effect rating, MOOVA [2, 12]: 9.0
- herbicidal effect rating, MOOVA [2, 13]: 9.0
- herbicidal effect rating, MOOVA [2, 14]: 9.0
- herbicidal effect rating, MOOVA [2, 15]: 9.0
- herbicidal effect rating, CYPSE [3, 11]: 6.0
- herbicidal effect rating, CYPSE [3, 12]: 8.0
- herbicidal effect rating, CYPSE [3, 13]: 8.0
- herbicidal effect rating, CYPSE [3, 14]: 7.0
- herbicidal effect rating, CYPSE [3, 15]: 0.0
- herbicidal effect rating ORYSAT ([4]; Rate 0.0320 kg/ha): 2.0
- herbicidal effect rating ORYSAT ([4]; Rate 0.0620 kg/ha): 3.0
- herbicidal effect rating ORYSAT ([4]; Rate 0.1250 kg/ha): 4.0
- herbicidal effect rating ORYSAT ([4]; Rate 0.2500 kg/ha): 4.0
- herbicidal effect rating ORYSAT ([4]; Rate 0.5000 kg/ha): 3.0
- herbicidal effect rating, SAGPY [5, 11]: 2.0
- herbicidal effect rating, SAGPY [5, 12]: 4.0
- herbicidal effect rating, SAGPY [5, 13]: 4.0
- herbicidal effect rating, SAGPY [5, 14]: 7.0
- herbicidal effect rating, SAGPY [5, 15]: 3.0
- herbicidal effect rating, CYPIR [6, 11]: 7.0
- herbicidal effect rating, CYPIR [6, 12]: 7.0
- herbicidal effect rating, CYPIR [6, 13]: 9.0
- herbicidal effect rating, CYPIR [6, 14]: 9.0
- herbicidal effect rating, CYPIR [6, 15]: 9.0
